In patent publication US20050272682A1, “SiRNA targeting PI3K signal transduction pathway and siRNA-based therapy” (priority 2004, published 2005):
Entries after “also recorded” stand apart in the source; their conditions may differ.

Columns and labels:
PI3K/Akt pathway = test: Western blot and immunofluorescence of Akt1, p85α and pAkt in transfected KM20 cells; assay type: cell-based, human
Description: Cell culture transfection was carried out with siPORT™ Amine transfection agent according to the manufacturer's protocol. Three days after transfection with the siRNA duplexes, cells were harvested and protein expression was assessed by Western blot.
(§1) Western immunoblot analyses were performed as described previously (Wang, et al., 2000). Cells were lysed with TNN buffer at 4° C. for 30 min. Lysates were clarified by centrifugation (10,000×g for 30 min at 4° C.) and protein concentrations determined using the method of Bradford (1976). Briefly, total protein (100 μg) was resolved on a 10% polyacrylamide gel and transferred to Immobilon-P […] membranes. Filters were incubated overnight at 4° C. in blotting solution (Tris-buffered saline containing 5% nonfat dried milk and 0.1% Tween 20), followed by a 1-h incubation with primary antibodies. Filters were washed three times in a blocking solution and incubated with horseradish peroxidase-conjugated secondary antibodies for 1 h. After three additional washes, the immune complexes were visualized by ECL detection.
KM20 cells were seeded onto sterile glass coverslips in 60 mm dishes and cultured for 16-24 h before treatment. Cells were transfected with pik3r1 or Akt1 or scrambled (control) siRNA sequences. At 96 h posttransfection, cells were washed in PBS, fixed in cold methanol for 5 min, and washed in three changes of PBS followed by a solution of 10% normal goat serum. After washing, cells were then incubated with the primary antibody (diluted in PBS with 1.5% normal goat serum) for 60 min. […] After three final washes, the slides were viewed with a fluorescence microscope.
It is speculated that siRNA directed to PI3K/Akt pathway components would inhibit cell growth and induce apoptosis in human colorectal cancer cell lines. […] In view of evidence that Akt plays a critical role in the prosurvival properties of PI3K (Nichol son, et al., 2002), activation of Akt in pik3r1 and Akt1 siRNA treated cells was then analyzed by Western blot and immunofluorescent analysis using a phospho-specific Ser473 Akt antibody.

KM20 cells = test: DNA fragmentation assay (Cell Death Detection ELISA), KM20 cells; assay type: cell-based, human; details: KM20 cells
Description: Cells were transfected with pik3r1, Akt1 or scrambled siRNA. After 48 h, adherent cells were detached by rapid trypsinization, counted in a Hausser chamber and seeded at a density of 2×10^3 cells per well in 96-well flat-bottom microtiter plates and incubated in 250 μl of growth medium for 24 h at 37° C. Media were removed and either new complete media or TRAIL (100 ng/mL) was added in a final volume of 200 μL and allowed to grow for 24 h at 37° C. After treatment, DNA fragmentation was evaluated by examination of cytoplasmic histone-associated DNA fragments (mono- and oligonucleosomes) using a Cell Death Detection ELISA^Plus kit (Roche Molecular Biochemicals) according to the manufacturer's instructions and as previously described (Wang. et al., 2002). The experiments were repeated on at least 3 separate occasions.

KM20 tumor xenografts = test: Western blot of KM20 tumor xenografts after siRNA treatment; assay type: in vivo, mice
Description: as §1
Prior to tumor injection, KM20 cells were harvested, washed twice in ice-cold serum free minimum Eagle's medium, counted for viable cells by trypan blue exclusion. The cells were resuspended in the same medium and used to inject mice subcutaneously (sc) with 2×10^6 cells in a volume of 0.2 ml. After tumors reached ˜60 mm^2, mice were sacrificed and 9 mm^2 tumor xenografts were transferred to the left flank of athymic mice. After tumor xenografts reached ˜60 mm^2 (day 10), mice were randomly divided into three groups (n=5 mice/group): the first group of mice was treated with scrambled siRNA, the second and third groups were treated with siRNA (5 μg diluted in 100 μl of serum free medium) directed against pik3r1 or Akt1, respectively, as intratumoral injections. Treatments consisted of electrotherapy initiated from 2 to 3 min after intratumoral siRNA injection once a day every 3 days. Tumor growth was assessed every third day from day 10 onward by measuring the two greatest perpendicular tumor dimensions using vernier calipers (Mitutozo, Tokyo, Japan) (Wang, et al., 2002). Consistent with institutional requirements, the mice were euthanized once tumors grew to a size greater that 2 cm.
Electrotherapy consisted of intratumoral administration of pik3r1, Akt1 or scrambled control siRNA followed by exposure of tumor nodules to electric pulses. Square wave electric pulses of 70 μsec, 100 V amplitude were delivered through two parallel stainless steel electrodes (Tweezertrode Model 522, Holliston, Mass.) with an electropulsator BTX T 820 (Holliston, Mass.). In the study, plate electrodes with a distance of 10 mm between them were used for percutaneous delivery of electric pulses. Each run of electric pulses was delivered in two trains of tree pulses, with 1 sec interval, in two perpendicular directions. The orientation of the electric field was used to direct the uptake of the siRNA. Good contact between the electrodes and the skin was assured by means of a conductive gel. Nodules larger than 7 mm in diameter were treated with several runs of electric pulses, administered in adjacent positions in such a way that the whole tumor area was effectively treated.

pik3r1 siRNA: siRNA to human pik3r1 (p85α) used in KM20/KM12C cells and xenografts; SEQ ID NO:24 vs. SEQ ID NO:25 (chain 1 GAAUAUACCCGCACAUCCCUU; chain 2 GGGAUGUGCGGGUAUAUUCUU; listed as RNA, chemistry not given here)
pAkt expression (immunofluorescent analysis) (PI3K/Akt pathway; 96 h posttransfection, compared with scrambled sequences): suppression | p85α protein levels (PI3K/Akt pathway; Western blot, 72, 96 and 120 h after transfection in Example 19): reduced; also recorded: decreased | pAkt expression levels (PI3K/Akt pathway; Western blot, phospho-Ser473 Akt antibody): suppressed; also recorded: decreased | DNA fragmentation (apoptosis) (KM20 cells; siRNA alone compared to scrambled sequence): increase; also recorded: induced | TRAIL-mediated apoptosis (DNA fragmentation) (KM20 cells; siRNA in combination with TRAIL 100 ng/mL): significant augmentation | Bax protein expression (KM20 tumor xenografts): increased | PARP cleavage (KM20 tumor xenografts): increased | activation of caspase-3 (KM20 tumor xenografts): increased | activation of caspase-8 (KM20 tumor xenografts): increased | activation of caspase-9 (KM20 tumor xenografts): increased | p85α expression (KM20 tumor xenografts): decreased | pAkt expression (KM20 tumor xenografts): decreased | Bcl-xL protein expression (KM20 tumor xenografts; compared to scrambled sequence): decreased | Mcl-1 protein expression (KM20 tumor xenografts; compared to scrambled sequence): decreased | cytochrome C expression (KM20 tumor xenografts; compared with scrambled control): increased
